# Data published in patent publication US20150057246A1, “SILYL-CONTAINING HETEROCYCLIC COMPOUNDS AND METHODS OF USE THEREOF FOR THE TREATMENT OF VIRAL DISEASES” (priority 2012, published 2015).
# Read-outs that look alike come from different tables or passages of the source.
# Key:
# HCV 1a replicon = test: Cell-based HCV replicon assay (TaqMan), genotype 1a replicon; settings: HCV genotype 1a replicon cells, replicon RNA by real time PCR, day 3, EC90 = concentration for ΔCT=3.2 over baseline
# Experimental: (§1) Measurement of inhibition by compounds of the present invention was performed using the HCV replicon system. Several different replicons encoding different HCV genotypes or mutations were used. In addition, potency measurements were made using different formats of the replicon assay, including different ways of measurements and different plating formats. See Jan M. Vrolijk et al., A replicons-based bioassay for the measurement of interferons in patients with chronic hepatitis C, 110 J. VIROLOGICAL METHODS 201 (2003); Steven S. Carroll et al., Inhibition of Hepatitis C Virus RNA Replication by 2′-Modified Nucleoside Analogs, 278(14) J. BIOLOGICAL CHEMISTRY 11979 (2003). However, the underlying principles are common to all of these determinations, and are outlined below.
# (§2) TaqMan®-Based Assay Protocol:
# (§3) Compounds of the present invention were assayed for cell-based anti-HCV activity using the following protocol. Replicon cells were seeded at 5000 cells/well in 96-well collagen I-coated Nunc plates in the presence of the test compound. Various concentrations of test compound, typically in 10 serial 2-fold dilutions, were added to the assay mixture, with the starting concentration ranging from 250 μM to 1 μM. The final concentration of DMSO was 0.5%, fetal bovine serum was 5%, in the assay media. Cells were harvested on day 3 by the addition of 1× cell lysis buffer (Ambion cat #8721). The replicon RNA level was measured using real time PCR (TaqMan® assay). The amplicon was located in 5B. The PCR primers were: 5B.2F, ATGGACAGGCGCCCTGA (SEQ. ID NO. 1); 5B.2R, […] (SEQ. ID NO. 2); the probe sequence was FAM-labeled CACGCCATGCGCTGCGG (SEQ. ID NO. 3). GAPDH RNA was used as endogenous control and was amplified in the same reaction as NS5B (multiplex PCR) using primers and VIC-labeled probe recommended by the manufacturer (PE Applied Biosystem). The real-time […] reactions were run on ABI PRISM 7900HT Sequence Detection System using the following program: 48° C. for 30 minutes, 95° C. for 10 minutes, 40 cycles of 95° C. for 15 sec, 60° C. for 1 minute. The ΔCT values (CT5B-CTGAPDH) were plotted against the concentration of test compound and fitted to the sigmoid dose-response model using XLfit4 (MDL). EC50 was defined as the concentration of inhibitor necessary to achieve ΔCT=1 over the projected baseline; EC90 the concentration necessary to achieve ΔCT=3.2 over the baseline. Alternatively, to quantitate the absolute amount of replicon RNA, a standard curve was established by including serially diluted T7 transcripts of replicon RNA in the Taqman assay. All TaqMan® reagents were from PE Applied Biosystems. Such an assay procedure was described in detail in e.g. Malcolm et al., Antimicrobial Agents and Chemotherapy 50: 1013-1020 (2006).
# (§4) HCV replicon EC50 assay data for various replicons and mutants was calculated for selected compounds of the present invention using this method and is provided in the tables above herein.
# HCV 1a Y93H replicon = test: Cell-based HCV replicon assay (TaqMan), 1a Y93H mutant replicon; settings: Hepatitis C virus, 72 h, read-out: 1a Y93H EC90, HCV 1a Y93H mutant replicon cells, replicon RNA by real time PCR, day 3; EC90 = concentration for ΔCT=3.2 over baseline
# Experimental: as §1, §2, §3, §4
# HCV 2b replicon = test: Cell-based HCV replicon assay (TaqMan), genotype 2b replicon; settings: EC90 = concentration for ΔCT=3.2 over baseline
# Experimental: as §1, §2, §3, §4
# [1] = Hepatitis C virus, 72 h, read-out: 2b EC90, HCV genotype 2b replicon cells, replicon RNA by real time PCR, day 3
SMILES,"EC90 (HCV 1a replicon; Hepatitis C virus, 72 h)",EC90 (HCV 1a Y93H replicon),EC90 (HCV 2b replicon; [1]),EC90 (HCV 1a replicon),"EC90 (HCV 2b replicon; read-out: 2b EC90, HCV genotype 2b replicon cells, replicon RNA by real time PCR, day 3)"
COC(=O)N[C@H](C(=O)N1CCC[C@H]1c1ncc(-c2ccc(-c3ccc4c(ccc5nc([C@@H]6C[Si](C)(C)CN6C(=O)[C@@H](NC(=O)OC)C(C)OC)[nH]c54)c3)cc2)[nH]1)C(C)OC (stereo partly drawn) [Compound 19],0.036 nM,> 100 nM,> 100 nM,,
CCC(C)[C@H](NC(=O)OC)C(=O)N1CCC[C@H]1c1ncc(-c2ccc(-c3ccc4c(ccc5nc([C@@H]6C[Si](C)(C)CN6C(=O)[C@@H](NC(=O)OC)C(C)CC)[nH]c54)c3)cc2)[nH]1 (stereo partly drawn) [Compound 20],0.063 nM,> 100 nM,> 100 nM,,
CCN(CC)[C@@H](C(=O)N1CCC[C@H]1c1ncc(-c2ccc(-c3ccc4c(ccc5nc([C@@H]6C[Si](C)(C)CN6C(=O)[C@@H](c6ccccc6)N(CC)CC)[nH]c54)c3)cc2)[nH]1)c1ccccc1 [Compound 21],0.25 nM,> 100 nM,0.39 nM,,
COC(=O)N[C@H](C(=O)N1C[Si](C)(C)C[C@H]1c1ncc(-c2ccc(-c3ccc4c(ccc5nc([C@@H]6CCCN6C(=O)[C@@H](NC(=O)OC)C6CCCC6)[nH]c54)c3)cc2)[nH]1)C1CCCC1 [Compound 35],0.5 nM,555 nM,566 nM,,
COC(=O)N[C@H](C(=O)N1C[Si](C)(C)C[C@H]1c1ncc(-c2ccc(-c3ccc4c(ccc5nc([C@@H]6CCCN6C(=O)[C@@H](NC(=O)OC)[C@@H](C)OC)[nH]c54)c3)cc2)[nH]1)[C@@H](C)OC [Compound 36],0.152 nM,276 nM,> 1000 nM,,
COC(=O)N[C@@H](Cc1cccc(O)c1)C(=O)N1C[Si](C)(C)C[C@H]1c1ncc(-c2ccc(-c3ccc4c(ccc5nc([C@@H]6CCCN6C(=O)[C@H](Cc6cccc(O)c6)NC(=O)OC)[nH]c54)c3)cc2)[nH]1 [Compound 37],2.52 nM,> 1000 nM,> 1000 nM,,
COC(=O)N[C@@H](Cn1ncnn1)C(=O)N1C[Si](C)(C)C[C@H]1c1ncc(-c2ccc(-c3ccc4c(ccc5nc([C@@H]6CCCN6C(=O)[C@H](Cn6ncnn6)NC(=O)OC)[nH]c54)c3)cc2)[nH]1 [Compound 38],2.57 nM,> 1000 nM,408 nM,,
COC(=O)N1CCOC[C@H]1C(=O)N1C[Si](C)(C)C[C@H]1c1ncc(-c2ccc(-c3ccc4c(ccc5nc([C@@H]6CCCN6C(=O)[C@@H]6COCCN6C(=O)OC)[nH]c54)c3)cc2)[nH]1 [Compound 39],149 nM,> 1000 nM,> 1000 nM,,
COC(=O)N[C@@H](Cc1cn(C)cn1)C(=O)N1C[Si](C)(C)C[C@H]1c1ncc(-c2ccc(-c3ccc4c(ccc5nc([C@@H]6CCCN6C(=O)[C@H](Cc6cn(C)cn6)NC(=O)OC)[nH]c54)c3)cc2)[nH]1 [Compound 40],2.57 nM,> 1000 nM,> 1000 nM,,
CC[C@H](C)[C@H](NC(=O)OC)C(=O)N1C[Si](C)(C)C[C@H]1c1ncc(-c2ccc(-c3ccc4c(ccc5nc([C@@H]6CCCN6C(=O)[C@@H](NC(=O)OC)[C@@H](C)CC)[nH]c54)c3)cc2)[nH]1 [Compound 41],,614 nM,,0.19 nM,271 nM
CC[C@H](NC(=O)OC)C(=O)N1C[Si](C)(C)C[C@H]1c1ncc(-c2ccc(-c3ccc4c(ccc5nc([C@@H]6CCCN6C(=O)[C@H](CC)NC(=O)OC)[nH]c54)c3)cc2)[nH]1 [Compound 44],0.3 nM,302 nM,171 nM,,
COC(=O)N[C@@H](CCSC)C(=O)N1C[Si](C)(C)C[C@H]1c1ncc(-c2ccc(-c3ccc4c(ccc5nc([C@@H]6CCCN6C(=O)[C@H](CCSC)NC(=O)OC)[nH]c54)c3)cc2)[nH]1 [Compound 45],0.85 nM,> 1000 nM,563 nM,,
